Test results published in patent US5776673A, “Treatment and detection of tuberculosis, leprosy, and related diseases” (priority 1995, dated 1998).

molecular target: T1, Taq DNA polymerase (Thermus aquaticus, UniProt P19821); test: not given; details: 10 μM 4 dNTPs, ddNTP 100 to 2,000 μM; factor versus F667Y multiplied by its absolute ratio

Structure (SMILES) | Incorporation Rate Ratios dN/ddN
Cc1cn([C@H]2CC[C@@H](COP(=O)(O)OP(=O)(O)OP(=O)(O)O)O2)c(=O)[nH]c1=O [ddTTP] | 4,500
Nc1ccn([C@H]2CC[C@@H](COP(=O)(O)OP(=O)(O)OP(=O)(O)O)O2)c(=O)n1 [ddCTP] | 2,600
Nc1ncnc2c1ncn2[C@H]1CC[C@@H](COP(=O)(O)OP(=O)(O)OP(=O)(O)O)O1 [ddATP] | 4,700
Nc1nc2c(ncn2[C@H]2CC[C@@H](COP(=O)(O)OP(=O)(O)OP(=O)(O)O)O2)c(=O)[nH]1 [ddGTP] | 1,400

molecular target: T2, E. coli DNA polymerase I (Escherichia coli, UniProt P00582); test: not given; details: 10 μM 4 dNTPs, ddNTP 100 to 2,000 μM; factor versus F762Y multiplied by its absolute ratio

Structure (SMILES) | Incorporation Rate Ratios dN/ddN
Cc1cn([C@H]2CC[C@@H](COP(=O)(O)OP(=O)(O)OP(=O)(O)O)O2)c(=O)[nH]c1=O [ddTTP] | 1,100
Nc1ccn([C@H]2CC[C@@H](COP(=O)(O)OP(=O)(O)OP(=O)(O)O)O2)c(=O)n1 [ddCTP] | 250
Nc1ncnc2c1ncn2[C@H]1CC[C@@H](COP(=O)(O)OP(=O)(O)OP(=O)(O)O)O1 [ddATP] | 720
Nc1nc2c(ncn2[C@H]2CC[C@@H](COP(=O)(O)OP(=O)(O)OP(=O)(O)O)O2)c(=O)[nH]1 [ddGTP] | 140

molecular target: T3, T7 DNA polymerase Y526F (Escherichia phage T7, UniProt P00581, DEL118-145/Y526F); test: not given; details: 10 μM 4 dNTPs, ddNTP 100 to 2,000 μM; factor versus T7 DNA polymerase multiplied by its absolute ratio

Structure (SMILES) | Incorporation Rate Ratios dN/ddN
Cc1cn([C@H]2CC[C@@H](COP(=O)(O)OP(=O)(O)OP(=O)(O)O)O2)c(=O)[nH]c1=O [ddTTP] | 8,400
Nc1ccn([C@H]2CC[C@@H](COP(=O)(O)OP(=O)(O)OP(=O)(O)O)O2)c(=O)n1 [ddCTP] | 11,000
Nc1ncnc2c1ncn2[C@H]1CC[C@@H](COP(=O)(O)OP(=O)(O)OP(=O)(O)O)O1 [ddATP] | 7,300
Nc1nc2c(ncn2[C@H]2CC[C@@H](COP(=O)(O)OP(=O)(O)OP(=O)(O)O)O2)c(=O)[nH]1 [ddGTP] | 6,400

molecular target: T2, E. coli DNA polymerase I; test: Competition of dATP and ddATP at a single site in synthetic Primer-Template A (Example 4); assay type: biochemical; set-up: The large fragment of E. coli DNA polymerase I, commonly called the Klenow fragment; details: 10 μM dATP; read-out: [ddATP] for 50% inhibition
Experimental: (§1) Example 4. Determination of the efficiency of incorporation of dideoxynucleotides by measuring the incorporation of [α-^32 P]dAMP into synthetic primer-template complexes
(§2) In this example the competition between a dNTP and a ddNTP is assayed for use at a single site in a synthetic primer-template. This assay differs from the others in that it limits the comparison of the use of the two substrates to a single site, avoiding the complication of sequence-specific variability in discrimination. […]
(§3) Each reaction mixture contains 25 pmoles each of primer and template. […] The mixtures are incubated at 37° C. for 1 min (70° C. for thermophilic DNA polymerases), and the reactions are initiated by the addition of 5 μl aliquots (0.01 to 1 unit) of the DNA polymerase being analyzed diluted in 20 mM Tris.HCl, pH 7.5, 10 mM 2-mercaptoethanol and 0.05% bovine serum albumin. […] The disks are then dried under a heat lamp and counted in a scintillation counter in 5 ml of fluor (Opti-Fluor O, Packard). From the amount of radioactivity on each disk, the amount [^32 P]dGMP incorporated was determined. […]
(§4) All reactions are carried out with a constant amount of the DNA polymerase being analyzed; the amount of DNA polymerase should be sufficient to replicate 50% of the total […] residues in the single-stranded region of the template in the 10 min incubation in the presence of 10 μM DATP and the absence of ddATP. […]

Structure (SMILES) | IC50 [µM]
Nc1ncnc2c1ncn2[C@H]1CC[C@@H](COP(=O)(O)OP(=O)(O)OP(=O)(O)O)O1 [ddATP] | > 500

molecular target: T4, T7 DNA polymerase (Escherichia phage T7, UniProt P00581, DEL118-145); test: not given; assay type: biochemical, Bacteriophage T7; details: 100 μM 4dNTPs and 100 μM of one ddNTP
Experimental: (§5) Reaction conditions are used that are optimum for the DNA polymerase being tested with regard to buffer, pH, salts, and temperature of the reaction. A concentration of DNA polymerase is chosen whereby most of the primers are extended in a 10 min reaction and are terminated by the incorporation of a dideoxynucleotide. The reaction mixture contains 100 μM 4dNTPs and 100 μM of one of the four ddNTPs.
(§6) We used this test to compare the ability of six DNA polymerases to incorporate each of the four ddNMPs.
(§7) The reaction mixtures also contained 10 ng of yeast inorganic pyrophosphatase to inhibit pyrophosphorolysis that could otherwise increase the apparent discrimination by the DNA polymerase (Tabor and Richardson 265 J. Biol. Chem. 8322, 1990). The reactions were initiated by the addition of 2 μl of each DNA polymerase, diluted in 20 mM Tris.HCl, pH 7.5, 10 mM 2-mercaptoethanol and 0.05% bovine serum albumin to a concentration of approximately 0.025 units/μl. […] The reactions were terminated by the addition of 10 μl 90% formamide, 20 mM EDTA, 0.05% bromphenol blue. Each sample was heated at 90° C. for 2 min immediately prior to loading 6 μl of each sample onto a gel consisting of 8% polyacrylamide, 0.4% N,N'-methylenebisacrylamide, 7M urea in 100 mM Tris borate, pH 8.3, 1 mM EDTA. Electrophoresis was at 2000 Volts for 90 min (until the bromphenol blue had just run off the bottom of the gel). After electrophoresis, the gel was dried under vacuum, and autoradiographed. After autoradiography, the distribution of radioactively labeled fragments was determined by Phosphorimager analysis (Molecular Dynamics). Alternatively, the relative intensities of dideoxy-terminated bands can be determined by scanning the autoradiograph using an instrument such as the SciScan 5000 imaging densitometer (United States Biochemical Corp).
(§8) The distribution of radioactivity in the fragments was quantitated by Phosphoimager analysis (Molecular Dynamics). The total amount of labeled primers in each lane was determined by running three control reactions in which no DNA polymerase was present, and the radioactivity in each of the corresponding radioactive bands on the gel at the position of the unextended primer was determined. […] This value is defined as the total number of counts in primers that are capable of being extended by a DNA polymerase.
(§9) The values are presented in the Table below as the percentage of counts in the first three dideoxy-terminated fragments to the total number of counts in the primers capable of being extended by a DNA polymerase.
(§10) As a further test of the efficiency of each DNA polymerase to incorporate dideoxynucleotides, the number of counts in each fragment with a significant signal was determined for each reaction, and the data were plotted as a function of the fragment number using the Macintosh program Kaleidograph Version 3.0 (Synergy Software). The resulting plots were fit to an exponential decay curve using the Kaleidograph library routine for this function. The decay curve is given by the equation: […]

Structure (SMILES) | percentage of counts in the first three dideoxy-terminated fragments to the total number of counts in the primers capable of being extended [%]
Cc1cn([C@H]2CC[C@@H](COP(=O)(O)OP(=O)(O)OP(=O)(O)O)O2)c(=O)[nH]c1=O [ddTTP] | 76
Nc1ccn([C@H]2CC[C@@H](COP(=O)(O)OP(=O)(O)OP(=O)(O)O)O2)c(=O)n1 [ddCTP] | 61
Nc1ncnc2c1ncn2[C@H]1CC[C@@H](COP(=O)(O)OP(=O)(O)OP(=O)(O)O)O1 [ddATP] | 66
Nc1nc2c(ncn2[C@H]2CC[C@@H](COP(=O)(O)OP(=O)(O)OP(=O)(O)O)O2)c(=O)[nH]1 [ddGTP] | 67

same assay, conditions: 1:1 dNTP:ddNTP; fit Y=e^M*X

Structure (SMILES) | M, calculated exponential decay function
Cc1cn([C@H]2CC[C@@H](COP(=O)(O)OP(=O)(O)OP(=O)(O)O)O2)c(=O)[nH]c1=O [ddTTP] | -0.450
Nc1ccn([C@H]2CC[C@@H](COP(=O)(O)OP(=O)(O)OP(=O)(O)O)O2)c(=O)n1 [ddCTP] | -0.317
Nc1ncnc2c1ncn2[C@H]1CC[C@@H](COP(=O)(O)OP(=O)(O)OP(=O)(O)O)O1 [ddATP] | -0.356
Nc1nc2c(ncn2[C@H]2CC[C@@H](COP(=O)(O)OP(=O)(O)OP(=O)(O)O)O2)c(=O)[nH]1 [ddGTP] | -0.375

same assay, conditions: absolute ratios from 1:1 dNTP:ddNTP test

Structure (SMILES) | Incorporation Rate Ratios dN/ddN
Cc1cn([C@H]2CC[C@@H](COP(=O)(O)OP(=O)(O)OP(=O)(O)O)O2)c(=O)[nH]c1=O [ddTTP] | 2.8
Nc1ccn([C@H]2CC[C@@H](COP(=O)(O)OP(=O)(O)OP(=O)(O)O)O2)c(=O)n1 [ddCTP] | 3.7
Nc1ncnc2c1ncn2[C@H]1CC[C@@H](COP(=O)(O)OP(=O)(O)OP(=O)(O)O)O1 [ddATP] | 3.3
Nc1nc2c(ncn2[C@H]2CC[C@@H](COP(=O)(O)OP(=O)(O)OP(=O)(O)O)O2)c(=O)[nH]1 [ddGTP] | 3.2

same assay, conditions: equal concentrations; D=Y/(1-Y) at X=1

Structure (SMILES) | D, discrimination factor, ratio of use of dNTP to comparable ddNTP
Cc1cn([C@H]2CC[C@@H](COP(=O)(O)OP(=O)(O)OP(=O)(O)O)O2)c(=O)[nH]c1=O [ddTTP] | 1.8
Nc1ccn([C@H]2CC[C@@H](COP(=O)(O)OP(=O)(O)OP(=O)(O)O)O2)c(=O)n1 [ddCTP] | 2.7
Nc1ncnc2c1ncn2[C@H]1CC[C@@H](COP(=O)(O)OP(=O)(O)OP(=O)(O)O)O1 [ddATP] | 2.3
Nc1nc2c(ncn2[C@H]2CC[C@@H](COP(=O)(O)OP(=O)(O)OP(=O)(O)O)O2)c(=O)[nH]1 [ddGTP] | 2.2

molecular target: T5, Taq DNA polymerase F667Y (Thermus aquaticus, UniProt P19821, F667Y); test: not given; assay type: biochemical; details: 1:1 dNTP:ddNTP; fit Y=e^M*X
Experimental: as §5, §6, §7, §8, §9, §10

Structure (SMILES) | M, calculated exponential decay function
Cc1cn([C@H]2CC[C@@H](COP(=O)(O)OP(=O)(O)OP(=O)(O)O)O2)c(=O)[nH]c1=O [ddTTP] | -1.01
Nc1ccn([C@H]2CC[C@@H](COP(=O)(O)OP(=O)(O)OP(=O)(O)O)O2)c(=O)n1 [ddCTP] | -1.44
Nc1ncnc2c1ncn2[C@H]1CC[C@@H](COP(=O)(O)OP(=O)(O)OP(=O)(O)O)O1 [ddATP] | -0.997
Nc1nc2c(ncn2[C@H]2CC[C@@H](COP(=O)(O)OP(=O)(O)OP(=O)(O)O)O2)c(=O)[nH]1 [ddGTP] | -1.18

same assay, conditions: absolute ratios from 1:1 dNTP:ddNTP test

Structure (SMILES) | Incorporation Rate Ratios dN/ddN
Cc1cn([C@H]2CC[C@@H](COP(=O)(O)OP(=O)(O)OP(=O)(O)O)O2)c(=O)[nH]c1=O [ddTTP] | 0.56
Nc1ccn([C@H]2CC[C@@H](COP(=O)(O)OP(=O)(O)OP(=O)(O)O)O2)c(=O)n1 [ddCTP] | 0.32
Nc1ncnc2c1ncn2[C@H]1CC[C@@H](COP(=O)(O)OP(=O)(O)OP(=O)(O)O)O1 [ddATP] | 0.59
Nc1nc2c(ncn2[C@H]2CC[C@@H](COP(=O)(O)OP(=O)(O)OP(=O)(O)O)O2)c(=O)[nH]1 [ddGTP] | 0.45

same assay, conditions: equal concentrations; D=Y/(1-Y) at X=1

Structure (SMILES) | D, discrimination factor, ratio of use of dNTP to comparable ddNTP
Cc1cn([C@H]2CC[C@@H](COP(=O)(O)OP(=O)(O)OP(=O)(O)O)O2)c(=O)[nH]c1=O [ddTTP] | 0.56
Nc1ccn([C@H]2CC[C@@H](COP(=O)(O)OP(=O)(O)OP(=O)(O)O)O2)c(=O)n1 [ddCTP] | 0.32
Nc1ncnc2c1ncn2[C@H]1CC[C@@H](COP(=O)(O)OP(=O)(O)OP(=O)(O)O)O1 [ddATP] | 0.59
Nc1nc2c(ncn2[C@H]2CC[C@@H](COP(=O)(O)OP(=O)(O)OP(=O)(O)O)O2)c(=O)[nH]1 [ddGTP] | 0.45

molecular target: T4, T7 DNA polymerase; test: Competition of dATP and ddATP at a single site in synthetic Primer-Template A (Example 4); assay type: biochemical, Bacteriophage T7; details: 10 μM dATP; read-out: [ddATP] for 50% inhibition
Experimental: as §1, §2, §3, §4

Structure (SMILES) | IC50 [µM]
Nc1ncnc2c1ncn2[C@H]1CC[C@@H](COP(=O)(O)OP(=O)(O)OP(=O)(O)O)O1 [ddATP] | ~30

molecular target: T3, T7 DNA polymerase Y526F; test: as above; assay type: biochemical, Bacteriophage T7; details: 10 μM dATP; read-out: [ddATP] for 50% inhibition
Experimental: as §1, §2, §3, §4

Structure (SMILES) | IC50 [µM]
Nc1ncnc2c1ncn2[C@H]1CC[C@@H](COP(=O)(O)OP(=O)(O)OP(=O)(O)O)O1 [ddATP] | > 500

molecular target: T1, Taq DNA polymerase; test: as above; assay type: biochemical; details: 10 μM dATP; read-out: [ddATP] for 50% inhibition
Experimental: as §1, §2, §3, §4

Structure (SMILES) | IC50 [µM]
Nc1ncnc2c1ncn2[C@H]1CC[C@@H](COP(=O)(O)OP(=O)(O)OP(=O)(O)O)O1 [ddATP] | > 500

molecular target: T5, Taq DNA polymerase F667Y; test: as above; assay type: biochemical; details: 10 μM dATP; read-out: [ddATP] for 50% inhibition
Experimental: as §1, §2, §3, §4

Structure (SMILES) | IC50 [µM]
Nc1ncnc2c1ncn2[C@H]1CC[C@@H](COP(=O)(O)OP(=O)(O)OP(=O)(O)O)O1 [ddATP] | ~5
